The source made the active and inactive calls.
Legend:
[1] = biological target: T1, Microphthalmia-associated transcription factor (Homo sapiens, UniProt O75030); test: reducers of TRPM1 reporter luminescence, concentration series – cell-based, SK-MEL-5, cherry-picked, set 3, MITF inhibitor project, dose response (AID 493073); type: functional;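 further: SK-MEL-5 melanoma cells with luciferase driven by the MITF target TRPM1 promoter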
T1 sequence (O75030 whole entry): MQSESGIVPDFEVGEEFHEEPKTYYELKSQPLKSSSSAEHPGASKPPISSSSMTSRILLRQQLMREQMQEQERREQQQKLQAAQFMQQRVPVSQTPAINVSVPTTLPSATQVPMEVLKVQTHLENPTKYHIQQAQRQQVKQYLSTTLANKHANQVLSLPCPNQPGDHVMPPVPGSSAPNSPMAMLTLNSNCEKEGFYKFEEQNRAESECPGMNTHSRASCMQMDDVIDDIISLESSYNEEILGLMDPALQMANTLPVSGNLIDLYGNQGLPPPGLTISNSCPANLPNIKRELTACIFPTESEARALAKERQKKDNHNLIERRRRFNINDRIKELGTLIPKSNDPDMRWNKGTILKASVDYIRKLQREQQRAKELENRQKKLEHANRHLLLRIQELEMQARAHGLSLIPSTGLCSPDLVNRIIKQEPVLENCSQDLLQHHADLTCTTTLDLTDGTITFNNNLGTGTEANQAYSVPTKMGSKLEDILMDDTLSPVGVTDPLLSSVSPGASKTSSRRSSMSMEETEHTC

HEK293 [2] = test: SAR Analysis of small molecule inhibitors of T-cell specific antigen receptor-induced NF-kB activation in a HEK-293T cell line using a luminescence assay - Set 2. [Related pubchem assays (depositor defined):AID435003, AID435012, AID489026]; type: functional, cell-based; conditions: Homo sapiens
[3] = loss of viability in HepG2 cells – cell-based, CellTiter-Glo, cherry-picked, cytotoxicity control for Shn3 inhibitor project, dose response (AID 624134); type: functional
[4] = Luminescence Cell-Based Dose Response HTS to Identify Inhibitors of 5'UTR Stem-Loop Driven Prion Protein mRNA Translation in H4 Neuroglioblastoma Cells. [Related pubchem assays: 1827 (Project Summary), 1813 (Primary HTS)]; type: functional
HEK293 [5] = test: HEK293T cell viability loss, resazurin readout – resazurin fluorescence, cytotoxicity control for NF-kB activator project, SAR follow-up (AID 493251); type: functional, cell-based; conditions: Homo sapiens
[6] = non-specific 3'UTR reporter inhibition in Clone20-Shn3RL – cell-based, Renilla luciferase, cherry-picked, counter-screen for Shn3 inhibitor project, dose response (AID 624133); type: functional
[7] = biological target: T2, Heat shock factor protein 1 (Mus musculus, UniProt P38532); test: enhancement of HSF1-driven luciferase signal – cell-based, NIH3T3, luminescence, dose retest, confirmation (AID 435004); type: functional;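 further: stress induced by proteasome inhibitor MG132 added 30 min after compound; luciferase reporter driven by HSF1 response element in NIH3T3 cells; actives raise luminescence as potentiators of the MG132 stress response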
T2 sequence (P38532 whole entry): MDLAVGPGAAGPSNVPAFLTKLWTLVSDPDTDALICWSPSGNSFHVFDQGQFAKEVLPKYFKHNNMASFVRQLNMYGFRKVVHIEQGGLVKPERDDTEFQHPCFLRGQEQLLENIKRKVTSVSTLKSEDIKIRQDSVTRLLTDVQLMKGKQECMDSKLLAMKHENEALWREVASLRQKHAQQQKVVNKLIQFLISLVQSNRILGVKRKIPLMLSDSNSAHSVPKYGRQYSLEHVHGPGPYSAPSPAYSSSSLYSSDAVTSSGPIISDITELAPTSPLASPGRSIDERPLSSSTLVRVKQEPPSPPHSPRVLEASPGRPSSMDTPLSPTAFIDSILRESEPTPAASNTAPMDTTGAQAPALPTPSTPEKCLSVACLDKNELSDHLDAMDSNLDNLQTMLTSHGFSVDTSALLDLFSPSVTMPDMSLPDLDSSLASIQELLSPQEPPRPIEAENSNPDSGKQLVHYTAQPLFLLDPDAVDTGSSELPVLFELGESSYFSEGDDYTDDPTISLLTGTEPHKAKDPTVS

[8] = reduction of Shn3 3'UTR-driven luciferase in osteoblasts – cell-based, Clone20 osteoblasts, firefly luciferase, cherry-picked, dose response (AID 624132); type: functional;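 further: firefly luciferase luminescence from reporter carrying the Shn3 3'UTR in osteoblasts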
[9] = biological target: T3, Beta-2 adrenergic receptor (Homo sapiens, UniProt P07550); test: ADRB2 activation measured by internalization – cell-based, FAP fluorogen, flow cytometry, cherry pick 1, dose response (AID 588763); type: functional
Jurkat = test: SAR Analysis of small molecule inhibitors of T-cell specific antigen receptor-induced NF-kB activation in a Jurkat cell line using a luminescence assay - Set 2. [Related pubchem assays (depositor defined):AID435003, AID435012, AID465]; type: functional, cell-based; conditions: Homo sapiens
[10] = biological target: T3, Beta-2 adrenergic receptor; test: Dose response for HTS for Beta-2AR agonists via FAP method from Powderset1.; type: functional
[11] = luciferase reporter signal suppression in cells – H4 neuroglioma cells, luminescence, dose response (AID 1990); type: functional, cell-based
[12] = alpha-synuclein stem-loop luciferase translation blockers – H4 neuroglioma cells, luminescence, confirmation (AID 1988); type: functional, cell-based
HEK293 [13] = test: cells; type: functional, cell-based; conditions: Homo sapiens
[14] = biological target: T4, Nuclear receptor subfamily 0 group B member 1 (Homo sapiens, UniProt P51843); test: Luminescence-based cell-based high throughput dose response assay for inhibitors of the orphan nuclear receptor subfamily 0, group B, member 1 (DAX1; NR0B1). [Related pubchem assays (depositor defined):AID504766, AID504790]; type: functional
T4 sequence (P51843 whole entry): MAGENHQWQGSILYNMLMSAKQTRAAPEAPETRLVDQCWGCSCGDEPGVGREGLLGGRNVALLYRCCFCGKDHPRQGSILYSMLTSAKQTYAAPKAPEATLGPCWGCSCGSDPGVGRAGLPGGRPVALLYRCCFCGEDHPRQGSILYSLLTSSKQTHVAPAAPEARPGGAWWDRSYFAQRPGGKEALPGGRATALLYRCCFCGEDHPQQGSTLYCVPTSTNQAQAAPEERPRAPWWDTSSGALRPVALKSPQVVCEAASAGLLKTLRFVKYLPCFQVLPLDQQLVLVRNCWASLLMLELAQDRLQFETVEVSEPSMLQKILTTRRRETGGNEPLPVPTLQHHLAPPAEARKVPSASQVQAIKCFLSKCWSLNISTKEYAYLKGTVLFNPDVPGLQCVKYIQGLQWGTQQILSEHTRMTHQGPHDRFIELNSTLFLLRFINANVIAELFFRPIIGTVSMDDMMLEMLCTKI

Hexokinase-1 = biological target: T5, Hexokinase-1 (Homo sapiens, UniProt P19367); test: SAR analysis of small molecule inhibitors of hexokinase domain containing I (HKDC1) in the hexokinase 1 selectivity assay. [Related pubchem assays (depositor defined):AID493160, AID493190]; type: functional
T5 sequence (P19367 whole entry): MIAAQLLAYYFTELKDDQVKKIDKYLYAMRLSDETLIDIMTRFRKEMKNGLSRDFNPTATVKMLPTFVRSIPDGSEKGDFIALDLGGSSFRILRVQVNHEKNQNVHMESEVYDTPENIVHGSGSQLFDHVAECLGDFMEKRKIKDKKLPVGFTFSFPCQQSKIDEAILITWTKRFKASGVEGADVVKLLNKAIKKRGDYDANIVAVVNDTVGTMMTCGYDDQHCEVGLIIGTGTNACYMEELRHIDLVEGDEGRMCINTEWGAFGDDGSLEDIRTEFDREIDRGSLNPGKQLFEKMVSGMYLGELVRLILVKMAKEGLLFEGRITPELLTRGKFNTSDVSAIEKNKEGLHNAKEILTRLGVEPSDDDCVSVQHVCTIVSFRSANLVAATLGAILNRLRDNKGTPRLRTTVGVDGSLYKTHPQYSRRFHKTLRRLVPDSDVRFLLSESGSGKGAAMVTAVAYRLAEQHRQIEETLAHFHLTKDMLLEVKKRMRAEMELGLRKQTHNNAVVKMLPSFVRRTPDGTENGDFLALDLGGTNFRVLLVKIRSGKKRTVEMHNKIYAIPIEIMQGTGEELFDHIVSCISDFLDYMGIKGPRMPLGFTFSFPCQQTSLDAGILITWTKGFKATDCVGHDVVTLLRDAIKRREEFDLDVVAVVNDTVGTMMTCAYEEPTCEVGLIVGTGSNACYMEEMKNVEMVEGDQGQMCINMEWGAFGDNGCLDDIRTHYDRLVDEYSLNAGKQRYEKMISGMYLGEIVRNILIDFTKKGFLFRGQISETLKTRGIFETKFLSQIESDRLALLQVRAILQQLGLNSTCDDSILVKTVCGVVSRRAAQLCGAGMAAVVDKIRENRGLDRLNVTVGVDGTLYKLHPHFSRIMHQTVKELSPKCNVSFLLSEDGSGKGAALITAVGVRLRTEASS

Hexokinase HKDC1 = biological target: T6, Hexokinase HKDC1 (Homo sapiens, UniProt Q2TB90); test: SAR analysis of small molecule inhibitors of hexokinase domain containing I (HKDC1). [Related pubchem assays (depositor defined):AID493160, AID493190]; type: functional
T6 sequence (Q2TB90 whole entry): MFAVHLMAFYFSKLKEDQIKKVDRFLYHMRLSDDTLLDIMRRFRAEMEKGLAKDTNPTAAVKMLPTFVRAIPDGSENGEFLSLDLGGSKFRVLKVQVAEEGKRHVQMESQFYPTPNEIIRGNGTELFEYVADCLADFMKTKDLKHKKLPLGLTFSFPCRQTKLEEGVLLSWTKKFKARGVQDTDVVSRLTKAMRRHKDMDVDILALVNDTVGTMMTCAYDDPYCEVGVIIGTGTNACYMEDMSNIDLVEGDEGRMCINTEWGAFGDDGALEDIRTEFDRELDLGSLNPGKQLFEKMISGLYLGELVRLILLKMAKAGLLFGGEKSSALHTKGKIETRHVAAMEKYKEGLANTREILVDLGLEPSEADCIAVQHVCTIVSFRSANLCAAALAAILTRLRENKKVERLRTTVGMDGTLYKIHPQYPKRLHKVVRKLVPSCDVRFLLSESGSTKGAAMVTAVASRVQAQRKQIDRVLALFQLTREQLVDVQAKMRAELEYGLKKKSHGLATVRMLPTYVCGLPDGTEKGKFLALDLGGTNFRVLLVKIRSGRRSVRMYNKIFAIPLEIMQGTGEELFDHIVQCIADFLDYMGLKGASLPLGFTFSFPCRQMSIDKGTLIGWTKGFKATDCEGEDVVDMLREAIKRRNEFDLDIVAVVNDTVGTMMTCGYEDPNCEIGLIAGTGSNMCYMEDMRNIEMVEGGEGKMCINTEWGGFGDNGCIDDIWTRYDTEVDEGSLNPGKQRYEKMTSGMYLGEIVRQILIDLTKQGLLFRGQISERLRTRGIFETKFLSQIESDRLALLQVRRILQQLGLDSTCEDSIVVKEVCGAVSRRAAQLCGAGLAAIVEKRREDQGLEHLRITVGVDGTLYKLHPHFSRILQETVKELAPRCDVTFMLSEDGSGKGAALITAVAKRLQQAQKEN

T3 sequence (P07550 whole entry): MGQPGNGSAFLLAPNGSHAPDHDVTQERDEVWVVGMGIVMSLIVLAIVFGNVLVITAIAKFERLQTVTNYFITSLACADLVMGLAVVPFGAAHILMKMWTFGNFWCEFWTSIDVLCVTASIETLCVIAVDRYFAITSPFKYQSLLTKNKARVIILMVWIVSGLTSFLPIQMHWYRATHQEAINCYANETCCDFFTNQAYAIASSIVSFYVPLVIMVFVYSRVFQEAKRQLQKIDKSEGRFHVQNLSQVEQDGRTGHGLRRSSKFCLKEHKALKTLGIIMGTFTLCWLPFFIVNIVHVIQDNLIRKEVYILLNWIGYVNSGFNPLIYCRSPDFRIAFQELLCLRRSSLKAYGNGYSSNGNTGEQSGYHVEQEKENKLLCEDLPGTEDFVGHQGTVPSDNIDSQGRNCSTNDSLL

O=C(Nc1ccc(-c2nc3ncccc3o2)cc1)c1ccc([N+](=O)[O-])o1
AC50 [1]: 3.63 µM (active)
IC50 (HEK293 [2]): > 80 µM (inactive)
AC50 [3]: 22.6 µM (active)
EC50 [4]: > 120 µM (not active)
IC50 (HEK293 [5]): > 80 µM (inactive)
AC50 [6]: 11 µM (active)
EC50 [7]: 7.12 µM (active)
AC50 [8]: 1.34 µM (active)
EC50 [9]: 0.636 µM (active)
IC50 (Jurkat): > 79 µM (inactive)
EC50 [10]: 0.152 µM (active)
EC50 [11]: > 120 µM (not active)
EC50 [12]: > 60 µM (not active)

COc1cccc(CNC(=O)CN(C)S(=O)(=O)c2ccc(Br)s2)c1
IC50 (HEK293 [13]): 24.6 µM (inactive)
IC50 [14]: > 67.5 µM (inactive)

O=C(Nc1cccc(C(F)(F)F)c1)c1cccc(NC(=O)c2ccc3ccccc3n2)c1
IC50 (Hexokinase-1): > 80 µM (inactive)
IC50 (Hexokinase HKDC1): > 80 µM (inactive)

Source: ChEMBL document CHEMBL1201862, “PubChem BioAssay data set” (2004)
